Assay [1] deals with T1, RyR2 (Mus musculus, UniProt E9Q401). Kind of assay: ER Ca2+ leak measured in microsomes from mouse hippocampi. The note with it: hippocampal microsomes from treated MI mice, versus untreated MI. In kind it is in vivo. Details: Hippocampal RyR2 was immunoprecipitated and immunoblotted to detect PTMs; from tissue; host or cells: mouse hippocampus (SHAM / MI mice, treated in vivo). Here is the method: FIG. 3E are graphs of RyR2 Po, To and Tc in the same groups as FIG. 3D. FIG. 3F is a graph of Ca^2+ leak measured in microsomes from mouse hippocampi of the same groups as FIG. 3D. […] Individual values are shown with the mean±s.e.m. […] Data are derived from biologically independent samples. All statistical tests were two sided.
(§1) PTMs and functional abnormalities of neuronal RyR2 in HF hippocampal samples from MI mice were then evaluated and compared them to SHAM. Hippocampal RyR2 was immunoprecipitated and immunoblotted to detect PTMs.
Target sequence in this assay (E9Q401 whole entry): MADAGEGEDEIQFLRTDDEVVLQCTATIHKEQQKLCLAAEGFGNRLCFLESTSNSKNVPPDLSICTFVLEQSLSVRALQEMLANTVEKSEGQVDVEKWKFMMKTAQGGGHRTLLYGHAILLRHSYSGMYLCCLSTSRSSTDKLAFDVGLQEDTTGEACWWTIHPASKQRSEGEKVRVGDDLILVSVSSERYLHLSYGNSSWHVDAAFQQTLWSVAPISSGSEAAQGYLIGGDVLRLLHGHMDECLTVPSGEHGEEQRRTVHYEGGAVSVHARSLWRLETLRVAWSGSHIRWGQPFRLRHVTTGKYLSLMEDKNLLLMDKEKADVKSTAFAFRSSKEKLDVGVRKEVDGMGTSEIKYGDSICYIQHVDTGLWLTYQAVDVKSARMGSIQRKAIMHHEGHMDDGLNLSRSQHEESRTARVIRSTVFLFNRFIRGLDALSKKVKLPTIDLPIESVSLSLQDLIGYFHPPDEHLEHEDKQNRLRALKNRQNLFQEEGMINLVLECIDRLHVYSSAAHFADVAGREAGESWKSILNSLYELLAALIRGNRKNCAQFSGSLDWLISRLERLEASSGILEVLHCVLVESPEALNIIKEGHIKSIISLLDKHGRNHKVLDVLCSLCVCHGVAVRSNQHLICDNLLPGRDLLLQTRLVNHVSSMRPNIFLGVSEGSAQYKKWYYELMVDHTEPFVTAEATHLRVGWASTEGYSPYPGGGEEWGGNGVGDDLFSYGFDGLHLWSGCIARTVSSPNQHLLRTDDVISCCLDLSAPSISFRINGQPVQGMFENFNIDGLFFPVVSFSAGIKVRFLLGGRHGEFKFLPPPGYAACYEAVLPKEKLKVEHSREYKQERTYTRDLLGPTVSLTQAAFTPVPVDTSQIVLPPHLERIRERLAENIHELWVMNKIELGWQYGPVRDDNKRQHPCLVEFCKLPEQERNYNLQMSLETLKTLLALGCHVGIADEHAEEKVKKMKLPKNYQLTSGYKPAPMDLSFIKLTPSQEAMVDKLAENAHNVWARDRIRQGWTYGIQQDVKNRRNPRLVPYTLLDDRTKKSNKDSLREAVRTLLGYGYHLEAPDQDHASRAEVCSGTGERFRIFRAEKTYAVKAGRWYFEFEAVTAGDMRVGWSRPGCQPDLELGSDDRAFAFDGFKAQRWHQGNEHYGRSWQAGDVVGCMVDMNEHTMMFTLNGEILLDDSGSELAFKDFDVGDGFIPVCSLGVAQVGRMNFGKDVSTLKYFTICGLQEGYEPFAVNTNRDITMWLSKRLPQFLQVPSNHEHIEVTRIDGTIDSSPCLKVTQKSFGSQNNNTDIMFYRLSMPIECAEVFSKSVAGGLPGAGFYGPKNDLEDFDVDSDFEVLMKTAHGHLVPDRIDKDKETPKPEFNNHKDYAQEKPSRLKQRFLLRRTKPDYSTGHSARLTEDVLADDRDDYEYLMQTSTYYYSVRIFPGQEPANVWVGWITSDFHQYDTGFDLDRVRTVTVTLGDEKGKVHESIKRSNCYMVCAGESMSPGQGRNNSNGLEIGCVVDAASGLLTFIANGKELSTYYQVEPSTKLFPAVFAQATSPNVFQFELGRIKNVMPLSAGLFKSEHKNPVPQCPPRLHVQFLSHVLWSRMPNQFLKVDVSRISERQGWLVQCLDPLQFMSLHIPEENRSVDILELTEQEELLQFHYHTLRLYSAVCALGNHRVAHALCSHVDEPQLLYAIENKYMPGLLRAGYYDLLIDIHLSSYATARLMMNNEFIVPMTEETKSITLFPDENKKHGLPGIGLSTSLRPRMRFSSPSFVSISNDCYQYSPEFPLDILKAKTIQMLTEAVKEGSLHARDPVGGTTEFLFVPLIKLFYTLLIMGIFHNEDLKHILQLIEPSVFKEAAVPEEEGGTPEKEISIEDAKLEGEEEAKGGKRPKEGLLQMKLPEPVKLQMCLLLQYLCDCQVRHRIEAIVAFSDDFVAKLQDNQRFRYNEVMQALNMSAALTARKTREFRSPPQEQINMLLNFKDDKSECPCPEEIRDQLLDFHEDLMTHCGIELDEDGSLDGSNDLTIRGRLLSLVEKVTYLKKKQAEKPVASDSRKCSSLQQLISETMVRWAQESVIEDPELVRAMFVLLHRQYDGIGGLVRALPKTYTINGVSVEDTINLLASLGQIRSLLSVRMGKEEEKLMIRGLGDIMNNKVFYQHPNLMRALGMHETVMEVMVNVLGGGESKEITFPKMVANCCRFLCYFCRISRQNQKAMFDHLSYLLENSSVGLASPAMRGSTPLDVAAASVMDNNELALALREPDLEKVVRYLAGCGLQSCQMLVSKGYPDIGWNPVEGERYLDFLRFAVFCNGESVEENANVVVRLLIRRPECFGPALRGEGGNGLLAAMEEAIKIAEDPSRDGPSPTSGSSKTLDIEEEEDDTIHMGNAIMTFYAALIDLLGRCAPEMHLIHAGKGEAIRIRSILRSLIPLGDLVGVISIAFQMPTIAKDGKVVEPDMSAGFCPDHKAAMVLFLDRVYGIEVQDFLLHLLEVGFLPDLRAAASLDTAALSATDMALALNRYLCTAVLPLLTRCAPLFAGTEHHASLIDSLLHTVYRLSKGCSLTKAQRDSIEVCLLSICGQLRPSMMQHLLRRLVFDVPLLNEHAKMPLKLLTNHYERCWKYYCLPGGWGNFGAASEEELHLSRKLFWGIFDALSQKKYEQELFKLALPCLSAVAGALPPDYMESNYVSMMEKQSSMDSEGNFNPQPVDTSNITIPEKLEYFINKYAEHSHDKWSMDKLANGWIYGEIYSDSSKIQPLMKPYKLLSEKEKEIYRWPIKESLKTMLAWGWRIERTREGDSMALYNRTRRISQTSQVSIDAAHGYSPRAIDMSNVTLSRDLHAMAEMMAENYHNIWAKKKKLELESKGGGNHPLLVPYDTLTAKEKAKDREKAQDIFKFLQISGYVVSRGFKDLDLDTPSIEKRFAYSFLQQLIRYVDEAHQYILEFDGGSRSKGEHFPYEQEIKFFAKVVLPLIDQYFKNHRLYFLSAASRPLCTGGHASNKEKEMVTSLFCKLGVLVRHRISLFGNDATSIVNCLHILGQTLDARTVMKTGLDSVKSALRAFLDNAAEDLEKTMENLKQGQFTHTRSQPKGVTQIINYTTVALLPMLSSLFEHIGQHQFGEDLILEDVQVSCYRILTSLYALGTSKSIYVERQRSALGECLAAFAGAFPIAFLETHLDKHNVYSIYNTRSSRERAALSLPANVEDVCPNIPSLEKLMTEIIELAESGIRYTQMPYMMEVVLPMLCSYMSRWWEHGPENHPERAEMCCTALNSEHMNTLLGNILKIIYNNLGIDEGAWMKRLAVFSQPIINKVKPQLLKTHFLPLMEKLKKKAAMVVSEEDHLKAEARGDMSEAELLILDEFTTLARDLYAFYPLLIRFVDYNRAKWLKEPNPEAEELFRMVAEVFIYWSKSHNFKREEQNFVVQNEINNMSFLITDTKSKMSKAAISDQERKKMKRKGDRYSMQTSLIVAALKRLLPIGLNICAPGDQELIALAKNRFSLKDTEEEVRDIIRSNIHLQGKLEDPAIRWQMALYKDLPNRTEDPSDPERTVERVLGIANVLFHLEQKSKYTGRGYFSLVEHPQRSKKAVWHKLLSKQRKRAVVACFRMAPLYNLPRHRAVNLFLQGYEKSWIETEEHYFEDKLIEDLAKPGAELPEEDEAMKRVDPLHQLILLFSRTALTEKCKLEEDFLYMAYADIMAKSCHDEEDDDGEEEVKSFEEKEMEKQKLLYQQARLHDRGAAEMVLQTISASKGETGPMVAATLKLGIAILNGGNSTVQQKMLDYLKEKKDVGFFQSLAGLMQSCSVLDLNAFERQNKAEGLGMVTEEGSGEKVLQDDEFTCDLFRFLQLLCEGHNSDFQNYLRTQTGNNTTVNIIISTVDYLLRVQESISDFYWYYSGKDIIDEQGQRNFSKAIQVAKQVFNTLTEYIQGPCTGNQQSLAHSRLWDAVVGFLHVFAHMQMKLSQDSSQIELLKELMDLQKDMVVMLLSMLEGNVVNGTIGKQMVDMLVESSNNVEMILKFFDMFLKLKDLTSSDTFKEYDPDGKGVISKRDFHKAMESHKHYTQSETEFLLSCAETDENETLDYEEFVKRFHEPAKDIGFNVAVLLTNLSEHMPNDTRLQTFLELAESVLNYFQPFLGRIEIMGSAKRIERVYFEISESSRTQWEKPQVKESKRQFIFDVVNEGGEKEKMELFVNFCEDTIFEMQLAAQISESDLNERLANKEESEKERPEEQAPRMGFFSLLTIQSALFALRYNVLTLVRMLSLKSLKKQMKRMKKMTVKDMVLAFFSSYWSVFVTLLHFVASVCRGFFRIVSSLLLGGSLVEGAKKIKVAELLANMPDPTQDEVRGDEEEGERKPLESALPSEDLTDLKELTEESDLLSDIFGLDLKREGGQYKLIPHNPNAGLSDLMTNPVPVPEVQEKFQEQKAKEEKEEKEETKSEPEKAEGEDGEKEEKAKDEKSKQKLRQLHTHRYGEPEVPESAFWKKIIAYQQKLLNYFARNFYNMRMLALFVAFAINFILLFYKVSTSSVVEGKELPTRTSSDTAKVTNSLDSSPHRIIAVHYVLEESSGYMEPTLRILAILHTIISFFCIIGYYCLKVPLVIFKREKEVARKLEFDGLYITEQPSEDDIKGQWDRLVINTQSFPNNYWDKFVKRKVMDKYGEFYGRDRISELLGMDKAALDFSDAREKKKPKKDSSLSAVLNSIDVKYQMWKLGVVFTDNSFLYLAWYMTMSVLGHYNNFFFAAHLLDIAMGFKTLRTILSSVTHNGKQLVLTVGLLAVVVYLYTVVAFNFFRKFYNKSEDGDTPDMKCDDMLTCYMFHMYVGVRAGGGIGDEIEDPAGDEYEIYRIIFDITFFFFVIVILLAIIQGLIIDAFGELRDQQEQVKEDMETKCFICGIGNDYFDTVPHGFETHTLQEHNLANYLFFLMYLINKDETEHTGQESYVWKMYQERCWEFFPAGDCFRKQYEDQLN
Target sequence in this assay (Q9Z2I2 whole entry partner): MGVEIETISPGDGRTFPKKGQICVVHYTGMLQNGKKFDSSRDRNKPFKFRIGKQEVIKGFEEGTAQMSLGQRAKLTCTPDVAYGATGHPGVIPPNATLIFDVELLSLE

In assay [2] the test system is MI mice. Description: long-term potentiation (fEPSPs) in hippocampal slices. Format: in vivo, mouse. The note with it: slices from treated MI mice; MI decreased LTP versus SHAM. The protocol:
FIG. 4A is a schematic representation of a hippocampal brain slice for LTP experiments and the positioning of the stimulating and recording electrodes.
Field excitatory postsynaptic potentials (fEPSPs) were evaluated at the Schaffer collateral using a bipolar electrode placed at the CA3 and recording at the CA1 (FIG. 4A). […] Importantly, MI and treatment with the various compounds after MI had no effect on basal synaptic transmission determined by the input-output curves (I-O; P=0.5; FIG. 4D).

The subject of assay [3] is germinal matrix hemorrhage. Conditions: cited from earlier work.
Assay [4] has as its system HIV-1-associated neurocognitive disorders. Conditions: rat model; cited from earlier work.
The test system of assay [5] is mouse model of HF (myocardial infarction, MI). Description: novel object recognition test (hippocampal-dependent short-term memory). Format: in vivo. The note with it: MI mice, treated; MI 15%±4%, SHAM 48%±5%. An excerpt:
One-way analysis of variance (ANOVA) was used to compare the difference between the six groups in FIGS. 2B, 2C, 2E and 2F. Tukey's test was used for multiple comparisons; two-way ANOVA was used in FIG. 2D. […] All statistical tests were two sided with the data derived from biologically independent samples.
Next, a novel object recognition test was used to evaluate hippocampal-dependent short-term memory. (see Liu, X. et al. Role of leaky neuronal ryanodine receptors in stress-induced cognitive dysfunction. Cell 150, 1055-1067 (2012); and Bevins, R. A. & Besheer, J. Object recognition in rats and mice: a one-trial non-matching-to-sample learning task to study ‘recognition memory’. Nat. Protoc. 1, 1306-1311 (2006)).

Assay [6] concerns the target T2, hippocampal RyR2 (Mus musculus, UniProt E9Q401).
T2 construct: Hippocampal RyR2 was immunoprecipitated and immunoblotted to detect PTMs; from tissue; host or cells: mouse hippocampus (SHAM / MI mice, treated in vivo)
Description: SDS-PAGE analysis of modified RyR2 and calstabin2 immunoprecipitated from hippocampal RyR2 complex. In kind it is in vivo. The note with it: hippocampi of treated MI mice. Here is the method:
FIGS. 3A-3G illustrate a mouse model of heart failure that is associated with leaky hippocampal RyR2. FIG. 3A is a cryogenic electron microscopy structure of RyR2 (gray, top and side view) showing the location of the Ser2808 in the RY3&4 phosphorylation domain (magenta) and calstabin2 (cyan). RyR2 PKA phosphorylation shifted the channel toward a primed state (yellow) 50.
as §1

The test system of assay [7] is healthy individuals. The note with it: sustaining cognitive performance over time; cited from earlier work.
The subject of assay [8] is amyloid and Tau pathology. The note with it: Alzheimer's transgenic mice; cited from earlier work.
Assay [9] deals with T1, RyR2. Kind of assay: caffeine-induced Ca2+ release in primary hippocampal neurons. In kind it is cell-based. Also on record: representative images of 14-d cultured hippocampal neurons stimulated with 10 mM caffeine; endogenous in cells; host or cells: primary hippocampal neurons, 14 d in culture. The note with it: 10 mM caffeine; neurons treated with isoproterenol plus compound. Here is the method: FIG. 5A presents representative images of 14-d cultured hippocampal neurons stimulated with 10 mM caffeine. For each condition, the Ca^2+ levels are shown at baseline, during stimulation and at recovery. […] Individual values are shown with the mean±s.e.m. […] Scale bar, 10 μm. A reduction in caffeine-induced Ca^2+ release indicates a Ca^2+ depleted ER due to persistent RyR2-mediated Ca^2+ leak. Data are derived from biologically independent samples. All statistical tests were two sided.
To determine whether the activation of the adrenergic pathway indeed causes neuronal RyR2-mediated ER Ca^2+ leak, caffeine (10 mM), a well characterized RyR agonist, was used to assess RyR2 function specifically in hippocampal neurons without interference of other cell types such as glial cells or astrocytes.

T2 sequence (E9Q401 whole entry): as the sequence (E9Q401 whole entry) above
T2 sequence (Q9Z2I2 whole entry partner): as the sequence (Q9Z2I2 whole entry partner) above

Turning to `Fc1ccc(Cl)cc1-c1nc(Nc2ccncc2)c2nccnc2n1` [SD-208], the “ER Ca2+ leak” value in assay [1] is listed as “reduced”. The “LTP (hippocampal synaptic plasticity)” value in assay [2] is on record as “prevented MI-induced LTP deficits”. The “motor and cognitive function” value in assay [3] (rat model of germinal matrix hemorrhage) is on record as “partial recovery”. Besides, the germinal matrix hemorrhage entry in assay [3] (rat model) was “inhibit germinal matrix hemorrhage”. For the same compound, the spatial learning entry in assay [4] is listed as “improved”. Moreover, in assay [5], the discrimination index is 35%±6%. For the same compound, in [6], the RyR2 nitrosylation entry is “significantly decreased”, the RyR2 oxidation result was “significantly decreased”, the RyR2 phosphorylation entry is on record as “significantly decreased” and the “calstabin2 binding to RyR2” value is recorded as “enabled rebinding of calstabin2”.

With `CC(C)NCC(O)COc1cccc2ccccc12` (centres unmarked) [propranolol], the effects on cognition entry in [7] is “beneficial effects”. Also, in [8], the “amyloid and Tau pathology” value was “reduced”. In addition, in assay [2], the “LTP (hippocampal synaptic plasticity)” value is “prevented MI-induced LTP deficits”. Further, in assay [6], the RyR2 nitrosylation result was “significantly reduced”, the RyR2 phosphorylation result was “significantly reduced” and the “calstabin2 binding to RyR2” value is “restored calstabin2 binding”. Further, in assay [9], the “prevention of the small caffeine-induced Ca2+ release of isoproterenol-treated neurons” value was “prevented”.
